# Measurements: patent US20080132505A1 (Glaxo Group Limited, priority 2004, published 2008)
# Read-outs that look alike come from different tables or passages of the source.
# Biological target: human cannabinoid CB2 receptor (Homo sapiens, UniProt P34972)
# Assay: Cannabinoid CB2 receptor agonist activity (yeast reporter assay, FDGlu fluorescence)
# Assay type: cell-based
# Conditions: for Emax: read-out: efficacy value (Emax relative to HU210) at the cloned human cannabinoid CB2 receptor
# Description: Determination of Cannabinoid CB2 Receptor Agonist Activity
# The cannabinoid CB2 receptor agonist activity of the compounds of formula (I)-(IV) was determined in accordance with the following experimental method.
# Yeast (Saccharomyces cerevisiae) cells expressing the human cannabinoid CB2 receptor were generated by integration of an expression cassette into the ura3 chromosomal locus of yeast strain MMY23. This cassette consisted of DNA sequence encoding the human CB2 receptor flanked by the yeast GPD promoter to the 5′ end of CB2 and a yeast transcriptional terminator sequence to the 3′ end of CB2. MMY23 expresses a yeast/mammalian chimeric G-protein alpha subunit in which the C-terminal 5 amino acids of Gpa1 are replaced with the C-terminal 5 amino acids of human Gαi3 (as described in Brown et al. (2000), Yeast 16:11-22). Cells were grown at 30° C. in liquid Synthetic Complete (SC) yeast media (Guthrie and Fink (1991), Methods in Enzymology, Vol. 194) lacking uracil, tryptophan, adenine and leucine to late logarithmic phase (approximately 6 OD600/ml).
# Agonists were prepared as 10 mM stocks in DMSO. […] Agonist solutions in DMSO (1% final assay volume) were transferred into black, clear bottom, microtitre plates from NUNC (96- or 384-well). Cells were suspended at a density of 0.2 OD600/ml in SC media lacking histidine, uracil, tryptophan, adenine and leucine and supplemented with 10 mM 3-aminotriazole, 0.1M sodium phosphate pH 7.0, and […] fluorescein di-β-D-glucopyranoside (FDGlu). This mixture (50 ul per well for 384-well plates, 200 ul per well for 96-well plates) was added to agonist in the assay plates (Multidrop 384, Labsystems). After incubation at 30° C. for 24 hours, fluorescence resulting from degradation of FDGlu to fluorescein due to exoglucanase, an endogenous yeast enzyme produced during agonist-stimulated cell growth, was determined using a Spectrofluor microtitre plate reader (Tecan; excitation wavelength: 485 nm; emission wavelength: 535 nm). Fluorescence was plotted against compound concentration and iteratively curve fitted using a four parameter fit to generate a concentration effect value. Efficacy (Emax) was calculated from the equation
# where Max[compound X] and Min[compound X] are the fitted maximum and minimum respectively from the concentration effect curve for compound X, and Max[HU210] and Min[HU210] are the fitted maximum and minimum respectively from the concentration effect curve for (6aR,10aR)-3-(1,1′-Dimethylheptyl)-6a,7,10,10a-tetrahydro-1-hydroxy-6,6-dimethyl-6H-dibenzo[b,d]pyran-9-methanol (HU210; available from Tocris). Equieffective molar ratio (EMR) values were calculated from the equation
# Where EC50 [compound X] is the EC50 of compound X and EC50 [HU210] is the EC50 of HU210.
# [1] = EC50 value at the cloned human cannabinoid CB2 receptor
# Sequence of human cannabinoid CB2 receptor (P34972 whole entry): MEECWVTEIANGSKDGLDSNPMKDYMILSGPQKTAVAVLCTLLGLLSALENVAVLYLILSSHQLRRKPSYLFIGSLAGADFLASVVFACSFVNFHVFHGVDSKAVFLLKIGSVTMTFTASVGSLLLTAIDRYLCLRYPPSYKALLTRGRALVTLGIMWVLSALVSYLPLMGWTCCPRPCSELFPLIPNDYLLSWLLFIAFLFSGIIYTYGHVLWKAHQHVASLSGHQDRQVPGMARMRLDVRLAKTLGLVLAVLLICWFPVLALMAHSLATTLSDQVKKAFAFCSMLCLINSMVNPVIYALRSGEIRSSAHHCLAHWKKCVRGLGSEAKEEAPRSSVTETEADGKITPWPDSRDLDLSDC
SMILES,EC50 [1] [nM],Emax [%],EC50 (read-out: EC50 value at the cloned human cannabinoid CB2 receptor) [nM]
"O=C(NC1CCC1)c1cnc(Nc2ccc(Cl)c(Cl)c2)nc1C(F)(F)F [Example 30, 2-(3,4-Dichloro-phenylamino)-4-trifluoromethyl-pyrimidine-5-carboxylic acid cyclobutylamide]",300 to 1000,> 50,
"O=C(NCC1CCOCC1)c1cnc(Nc2cccc(F)c2)nc1C(F)(F)F [Example 31, 2-(3-Fluorophenylamino)-4-trifluoromethylpyrimidine-5-carboxylic acid (tetrahydropyran-4-ylmethyl)amide]",20 to 300,> 50,
"O=C(NCC1CCOCC1)c1cnc(Nc2cccc(Br)c2)nc1C(F)(F)F [Example 32, 2-(3-Bromophenylamino)-4-trifluoromethylpyrimidine-5-carboxylic acid (tetrahydropyran-4-ylmethyl)amide]",20 to 300,> 50,
"O=C(NCC1CCOCC1)c1cnc(Nc2cccc(Cl)c2Cl)nc1C(F)(F)F [Example 33, 2-(2,3-Dichlorophenylamino)-4-trifluoromethylpyrimidine-5-carboxylic acid (tetrahydropyran-4-ylmethyl)amide]",20 to 300,> 50,
"O=C(NCC1CCOCC1)c1cnc(Nc2cc(Cl)ccc2Cl)nc1C(F)(F)F [Example 35, 2-(2,5-Dichlorophenylamino)-4-trifluoromethylpyrimidine-5-carboxylic acid (tetrahydropyran-4-ylmethyl)-amide]",20 to 300,> 50,
"O=C(NCC1CCOCC1)c1cnc(Nc2cc(Cl)cc(Cl)c2)nc1C(F)(F)F [Example 36, 2-(3,5-Dichlorophenylamino)-4-trifluoromethylpyrimidine-5-carboxylic acid (tetrahydropyran-4-ylmethyl)-amide]",20 to 300,> 50,
"COc1cccc(Nc2ncc(C(=O)NCC3CCOCC3)c(C(F)(F)F)n2)c1 [Example 37, 2-(3-Methoxyphenylamino)-4-trifluoromethylpyrimidine-5-carboxylic acid (tetrahydropyran-4-ylmethyl)-amide]",20 to 300,> 50,
"O=C(NCC1CCCC1)c1cnc(Nc2cccc(F)c2)nc1C(F)(F)F [Example 38, 2-(3-Fluorophenylamino)-4-trifluoromethylpyrimidine-5-carboxylic acid cyclopentylmethyl-amide]",20 to 300,> 50,
"O=C(NCC1CCCC1)c1cnc(Nc2cccc(Br)c2)nc1C(F)(F)F [Example 39, 2-(3-Bromophenylamino)-4-trifluoromethylpyrimidine-5-carboxylic acid cyclopentylmethyl-amide]",20 to 300,> 50,
"O=C(NCC1CCCC1)c1cnc(Nc2cccc(Cl)c2Cl)nc1C(F)(F)F [Example 40, 2-(2,3-Dichlorophenylamino)-4-trifluoromethylpyrimidine-5-carboxylic acid cyclopentylmethyl-amide]",20 to 300,> 50,
"O=C(NCC1CCCC1)c1cnc(Nc2ccc(Cl)cc2Cl)nc1C(F)(F)F [Example 41, 2-(2,4-Dichlorophenylamino)-4-trifluoromethylpyrimidine-5-carboxylic acid cyclopentylmethyl-amide]",20 to 300,> 50,
"O=C(NCC1CCCC1)c1cnc(Nc2cc(Cl)ccc2Cl)nc1C(F)(F)F [Example 42, 2-(2,5-Dichlorophenylamino)-4-trifluoromethylpyrimidine-5-carboxylic acid cyclopentylmethyl-amide]",20 to 300,> 50,
"O=C(NCC1CCCC1)c1cnc(Nc2c(Cl)cccc2Cl)nc1C(F)(F)F [Example 43, 2-(2,6-Dichlorophenylamino)-4-trifluoromethylpyrimidine-5-carboxylic acid cyclopentylmethyl-amide]",20 to 300,> 50,
"O=C(NCC1CCCC1)c1cnc(Nc2ccc(Cl)c(Cl)c2)nc1C(F)(F)F [Example 44, 2-(3,4-Dichlorophenylamino)-4-trifluoromethylpyrimidine-5-carboxylic acid cyclopentylmethyl-amide]",20 to 300,> 50,
"O=C(NCC1CCCC1)c1cnc(Nc2cc(Cl)cc(Cl)c2)nc1C(F)(F)F [Example 45, 2-(3,5-Dichlorophenylamino)-4-trifluoromethylpyrimidine-5-carboxylic acid cyclopentylmethyl-amide]",20 to 300,> 50,
"COc1cccc(Nc2ncc(C(=O)NCC3CCCC3)c(C(F)(F)F)n2)c1 [Example 46, 2-(3-Methoxyphenylamino)-4-trifluoromethylpyrimidine-5-carboxylic acid cyclopentylmethyl-amide]",20 to 300,> 50,
"O=C(NC1CCC1)c1cnc(Nc2cccc(Br)c2)nc1C(F)(F)F [Example 47, 2-(3-Bromophenylamino)-4-trifluoromethylpyrimidine-5-carboxylic acid cyclobutylamide]",,,20 to 300
"O=C(NC1CCC1)c1cnc(Nc2cccc(Cl)c2Cl)nc1C(F)(F)F [Example 48, 2-(2,3-Dichlorophenylamino)-4-trifluoromethylpyrimidine-5-carboxylic acid cyclobutylamide]",20 to 300,> 50,
"O=C(NC1CCC1)c1cnc(Nc2ccc(Cl)cc2Cl)nc1C(F)(F)F [Example 49, 2-(2,4-Dichlorophenylamino)-4-trifluoromethylpyrimidine-5-carboxylic acid cyclobutylamide]",20 to 300,> 50,
"O=C(NC1CCC1)c1cnc(Nc2cc(Cl)ccc2Cl)nc1C(F)(F)F [Example 50, 2-(2,5-Dichlorophenylamino)-4-trifluoromethylpyrimidine-5-carboxylic acid cyclobutylamide]",20 to 300,> 50,
"O=C(NC1CCC1)c1cnc(Nc2c(Cl)cccc2Cl)nc1C(F)(F)F [Example 51, 2-(2,6-Dichlorophenylamino)-4-trifluoromethylpyrimidine-5-carboxylic acid N-cyclobutylamide]",20 to 300,> 50,
"O=C(NC1CCC1)c1cnc(Nc2cc(Cl)cc(Cl)c2)nc1C(F)(F)F [Example 52, 2-(3,5-Dichlorophenylamino)-4-trifluoromethylpyrimidine-5-carboxylic acid cyclobutylamide]",20 to 300,> 50,
"COc1cccc(Nc2ncc(C(=O)NC3CCC3)c(C(F)(F)F)n2)c1 [Example 53, 2-(3-Methoxyphenylamino)-4-trifluoromethylpyrimidine-5-carboxylic acid cyclobutylamide]",20 to 300,> 50,
"O=C(NCC1CCC1)c1cnc(Nc2cccc(Cl)c2)nc1C(F)(F)F [Example 54, 2-(3-Chlorophenylamino)-4-trifluoromethylpyrimidine-5-carboxylic acid cyclobutylmethyl-amide]",20 to 300,> 50,
"O=C(NCC1CCOCC1)c1cnc(Nc2c(Cl)cccc2Cl)nc1C(F)(F)F [Example 55, 2-(2,6-Dichlorophenylamino)-4-trifluoromethyl-pyrimidine-5-carboxylic acid (tetrahydro-pyran-4-ylmethyl)-amide]",20 to 300,> 50,
"O=C(c1cnc(Nc2ccc(Cl)c(Cl)c2)nc1C(F)(F)F)N1CCOCC1 [Example 68, 1-[2-(3,4-Dichlorophenylamino)-4-trifluoromethylpyrimidin-5-yl]-1-(morpholin-4-yl)-methanone]",20 to 300,> 50,
"O=C(NC[C@H]1CCCO1)c1cnc(Nc2cccc(F)c2)nc1C(F)(F)F [Example 73, 2-(3-Fluoro-phenylamino)-4-trifluoromethyl-pyrimidine-5-carboxylic acid [(R)-1-(tetrahydro-furan-2-yl)methyl]-amide]",,> 50,
"O=C(NC1CCCC1)c1cnc(Nc2ccc(Cl)c(Cl)c2)nc1C(F)(F)F [Example 74, 3,4-Dichlorophenylamino-4-trifluoromethyl-pyrimidine-5-carboxylic acid cyclopentylamide]",300 to 1000,> 50,
"O=C(NC1CCCC1)c1cnc(Nc2cc(Cl)cc(Cl)c2)nc1C(F)(F)F [Example 75, 3,5-Dichlorophenylamino-4-trifluoromethyl-pyrimidine-5-carboxylic acid cyclopentylamide]",300 to 1000,> 50,
